{"source": "paper PMC5587747", "about": "“A natural chalcone induces apoptosis in lung cancer cells: 3D-QSAR, docking and an in vivo/vitro assay” (Scientific Reports, 2017)", "key": {"H292 cells [1]": {"test_system": "H292 cells", "assay": "MTT cytotoxicity assay, H292 cells", "type": "cell-based, human", "details": "Homo sapiens, NCI-H292; for IC50: H292 cells", "method": "(§1) The cytotoxicities of the tested flavonoids were assayed in ten human lung cancer cell lines (A549, H226, H358, H522, H292, H1944, H460, H1792, SW1573, and Calu-1) using MTT reduction assay. Cisplatin (DDP) was selected as a positive control. Compounds 1–37 were dissolved in DMSO to obtain a clear solution of 1 M, which was diluted to 400 mM, 200 mM, 100 mM, 75 mM, 50 mM, 37.5 mM, 25 mM, 10 mM and 1 mM respectively as stock solutions. The DMSO concentration in the medium was kept below 0.10%. Moreover, the stability of tested compounds in experimental buffer was confirmed at 24 h and 48 h respectively by means of HPLC analysis. Then the human lung cancer cells were placed in 96-well culture plates (5 × 10^4 cells/well) and incubated for 24 h. Then, the cells were pretreated with different concentrations of test samples (gradient concentrations 1.0, 10.0, 25.0, 37.5, 50, 75, 100, 200, 400, 1000 μM for compounds 1–37 and DDP) for 48 h. And cell growth was measured by MTT assays. The cytotoxicities against the lung cancer cells were determined systematically and expressed as IC50 value."}, "Vero cells": {"test_system": "Vero cells", "assay": "Cytotoxicity in Vero cells", "type": "cell-based", "details": "at 1000 μM"}, "CEM leukaemic cell line": {"test_system": "CEM leukaemic cell line", "design": "method as in PMID 12601679", "details": "cited from earlier work"}, "[2]": {"test_system": "Bcl-2, Bax, procaspase-3, cleaved caspase-3, cytochrome c, caspase-9 in H292 cells", "assay": "Western blotting of apoptosis-related proteins", "type": "cell-based, human", "details": "H292, 20 μM", "method": "Western blotting was performed according to the method described in previous research. […] Then, the cells were harvested and then washed with PBS and lysed in a radio immune-precipitation assay buffer for 30 min. BCA protein assay kit (Byontime, Beijing, China) was used for determination of the total protein contents. And the protein samples were dissolved and seperated on 10% SDS-PAGE gels. After that the proteins were transferred to PVDF (polyvinylidene fluoride) (Bio-Rad, Hercules, CA) membranes and incubated sequentially with blocking buffer, primary antibodies, and horseradish peroxidase-conjugated secondary antibodies."}, "H292 cells [3]": {"test_system": "H292 cells", "assay": "Annexin V/PI apoptosis assay by flow cytometry", "type": "cell-based, human", "details": "H292, 20 μM", "method": "Cell apoptosis was evaluated by Annexin V/PI staining assay and analyzed using an apoptosis detection kit (Keygen, Nanjing, China)[37]. Briefly, H292 cells were cultured at the density of 1 × 10^6 cells/well. […] Both attached and floating cells were harvested at the arranged time point, and washed twice with ice-cold PBS, then resuspended in 100 μL binding buffer with Annexin V and PI for 15 min at 37 °C in darkness. Finally, the treated cells were analyzed by flow cytometry (Becton Dickinson, Franklin Lakes, NJ, USA) and Cell Quest software. The apoptosis rate was given by the following formula:\nApoptosis rate % = (number of apoptotic cells)/(number of total cells observed) × 100%."}, "H460": {"test_system": "H460", "assay": "MTT cytotoxicity assay, H460 cells", "type": "cell-based, human", "details": "Homo sapiens, NCI-H460, lonchocarpin 100 μM, read-out: inhibition rate (IR %)", "method": "as §1"}, "H1792": {"test_system": "H1792", "assay": "MTT cytotoxicity assay, H1792 cells", "type": "cell-based, human", "details": "Homo sapiens, NCI-H1792, lonchocarpin 100 μM, read-out: inhibition rate (IR %)", "method": "as §1"}, "SW1573": {"test_system": "SW1573", "assay": "MTT cytotoxicity assay, SW1573 cells", "type": "cell-based, human", "details": "Homo sapiens, lonchocarpin 100 μM, read-out: inhibition rate (IR %)", "method": "as §1"}, "S180-bearing mice": {"test_system": "S180-bearing mice", "assay": "In vivo antitumor activity in S180 implanted mice", "details": "12 days; for Tumor weight/g: mean ± SE", "method": "The animal experiments were carried out according to the National Institute of Health Guide for the Care and Use of Laboratory Animals. And the use of experimental animals was approved by the Animal Ethics Committee of Shenyang Pharmaceutical University. Male Kunming mice, were housed in separate cages under standard conditions (20–24 °C), relative humidity (55% ± 5%) and a 12 h light/12 h dark cycle, and allowed to acclimatize for 3 days prior to the start of experiment. Cultured S180 cells were harvested and washed with sterilized PBS (pH 7.2) three times and resuspended at a density of 6 × 10^6 cells/ml. Mice received subcutaneous implants of 0.2 mL/mouse on the right flank by means of hypodermic injection. Then the mice were divided randomly into 5 groups, including model, positive control and treatment groups with 10 mice in each group after inoculation for 24 h. […] Both groups received oral administrations via an intubation needle every day. […] The weight of the mice was recorded every day throughout the experiment. Finally, the mice were sacrificed by cervical dislocation just 2 h after the last administration. Then the tumor and spleen tissues were harvested and weighed immediately. After that the in vivo tumor inhibition ratio was calculated as: Inhibition ratio (%) = 100((A−B)/A), in which A represents the average tumor weight of the control group and B is recorded as the tumor weight of the administration group. Then, the spleen index was recorded using the following formula:\nSpleen index = the final weight of spleen (mg)/the final average body weight (g) without tumor."}, "H1944": {"test_system": "H1944", "assay": "MTT cytotoxicity assay, H1944 cells", "type": "cell-based, human", "details": "Homo sapiens, NCI-H1944, lonchocarpin 100 μM, read-out: inhibition rate (IR %)", "method": "as §1"}, "A549": {"test_system": "A549", "assay": "MTT cytotoxicity assay, A549 cells", "type": "cell-based, human", "details": "Homo sapiens, lonchocarpin 100 μM, read-out: inhibition rate (IR %)", "method": "as §1"}, "H522": {"test_system": "H522", "assay": "MTT cytotoxicity assay, H522 cells", "type": "cell-based, human", "details": "Homo sapiens, NCI-H522, lonchocarpin 100 μM, read-out: inhibition rate (IR %)", "method": "as §1"}, "H358": {"test_system": "H358", "assay": "MTT cytotoxicity assay, H358 cells", "type": "cell-based, human", "details": "Homo sapiens, NCI-H358, lonchocarpin 100 μM, read-out: inhibition rate (IR %)", "method": "as §1"}, "Calu-1": {"test_system": "Calu-1", "assay": "MTT cytotoxicity assay, Calu-1 cells", "type": "cell-based, human", "details": "Homo sapiens, lonchocarpin 100 μM, read-out: inhibition rate (IR %)", "method": "as §1"}, "H226": {"test_system": "H226", "assay": "MTT cytotoxicity assay, H226 cells", "type": "cell-based, human", "details": "Homo sapiens, NCI-H226, lonchocarpin 100 μM, read-out: inhibition rate (IR %)", "method": "as §1"}}, "note": "Read-outs that look alike come from different tables or passages of the source."}
{"smiles": "CC1(C)C=Cc2c(ccc(C(=O)/C=C/c3ccccc3)c2O)O1", "note": "[Compound 34, lonchocarpin]", "values": [{"measurement": "inhibition at 100 µM", "setting": "H292 cells [1]; H292, lonchocarpin 100 μM, read-out: inhibition rate (IR %)", "value": 97.5, "unit": "%"}, {"measurement": "IC50", "setting": "H292 cells [1]; MTT, 48 h, read-out: IC50", "value": 10, "unit": "µM"}, {"measurement": "IC50", "setting": "H292 cells [1]; Table S2, read-out: pIC50 (converted)", "value": 10, "unit": "µM"}, {"measurement": "cytotoxicity in Vero cells", "setting": "Vero cells; listed as Lonchocarpin", "value": "no cytotoxicity"}, {"measurement": "cytotoxicity in Vero cells", "setting": "Vero cells; listed as lonchocarpin", "value": "no toxicity"}, {"measurement": "IC50", "setting": "CEM leukaemic cell line", "value": 10.4, "unit": "µg/mL"}, {"measurement": "Bax protein expression", "setting": "[2]", "value": "up-regulation"}, {"measurement": "caspase-9", "setting": "[2]", "value": "activation"}, {"measurement": "cytochrome c protein expression", "setting": "[2]", "value": "up-regulation"}, {"measurement": "procaspase-3 protein expression", "setting": "[2]", "value": "reduction"}, {"measurement": "Bcl-2 protein expression", "setting": "[2]; 24 h and 48 h", "value": "obviously down-regulated"}, {"measurement": "cleaved caspase-3 protein expression", "setting": "[2]; 48 h", "value": "significantly increased"}, {"measurement": "early apoptosis (lower right quadrant)", "setting": "H292 cells [3]; 12 h", "value": 7.2, "unit": "%"}, {"measurement": "late apoptosis (upper right quadrant)", "setting": "H292 cells [3]; 12 h", "value": 3.9, "unit": "%"}, {"measurement": "apoptosis", "setting": "H292 cells [3]; 24 h", "value": "about 41.1%"}, {"measurement": "apoptosis", "setting": "H292 cells [3]; 48 h", "value": "~47.9", "unit": "%"}, {"measurement": "inhibition at 100 µM", "setting": "H460", "value": 76.3, "unit": "%"}, {"measurement": "inhibition at 100 µM", "setting": "H1792", "value": 46.7, "unit": "%"}, {"measurement": "inhibition at 100 µM", "setting": "SW1573", "value": 92.3, "unit": "%"}, {"measurement": "Body weight/g After experiment", "setting": "S180-bearing mice; 25 mg/kg oral daily", "value": "26.45 ± 0.68", "unit": "g"}, {"measurement": "Body weight/g Before experiment", "setting": "S180-bearing mice; 25 mg/kg oral daily", "value": "39.19 ± 2.15", "unit": "g"}, {"measurement": "Inhibitory rate (%)", "setting": "S180-bearing mice; 25 mg/kg oral daily", "value": 57.94, "unit": "%"}, {"measurement": "Spleen index", "setting": "S180-bearing mice; 25 mg/kg oral daily", "value": 3.08, "unit": "mg/g"}, {"measurement": "Tumor weight/g", "setting": "S180-bearing mice; 25 mg/kg oral daily", "value": "3.39 ± 0.69", "unit": "g"}, {"measurement": "Body weight/g After experiment", "setting": "S180-bearing mice; 50 mg/kg oral daily", "value": "28.99 ± 0.47", "unit": "g"}, {"measurement": "Body weight/g Before experiment", "setting": "S180-bearing mice; 50 mg/kg oral daily", "value": "36.48 ± 1.38", "unit": "g"}, {"measurement": "Inhibitory rate (%)", "setting": "S180-bearing mice; 50 mg/kg oral daily", "value": 63.40, "unit": "%"}, {"measurement": "Spleen index", "setting": "S180-bearing mice; 50 mg/kg oral daily", "value": 3.17, "unit": "mg/g"}, {"measurement": "Tumor weight/g", "setting": "S180-bearing mice; 50 mg/kg oral daily", "value": "2.95 ± 0.66", "unit": "g"}, {"measurement": "Body weight/g After experiment", "setting": "S180-bearing mice; 100 mg/kg oral daily", "value": "28.21 ± 1.98", "unit": "g"}, {"measurement": "Body weight/g Before experiment", "setting": "S180-bearing mice; 100 mg/kg oral daily", "value": "38.71 ± 2.20", "unit": "g"}, {"measurement": "Inhibitory rate (%)", "setting": "S180-bearing mice; 100 mg/kg oral daily", "value": 72.51, "unit": "%"}, {"measurement": "Spleen index", "setting": "S180-bearing mice; 100 mg/kg oral daily", "value": 3.30, "unit": "mg/g"}, {"measurement": "Tumor weight/g", "setting": "S180-bearing mice; 100 mg/kg oral daily", "value": "2.21 ± 0.72", "unit": "g"}, {"measurement": "inhibition at 100 µM", "setting": "H1944", "value": 69.2, "unit": "%"}, {"measurement": "inhibition at 100 µM", "setting": "A549", "value": 42.3, "unit": "%"}, {"measurement": "inhibition at 100 µM", "setting": "H522", "value": 63, "unit": "%"}, {"measurement": "inhibition at 100 µM", "setting": "H358", "value": 51.3, "unit": "%"}, {"measurement": "inhibition at 100 µM", "setting": "Calu-1", "value": 23.8, "unit": "%"}, {"measurement": "inhibition at 100 µM", "setting": "H226", "value": 62, "unit": "%"}]}
